# Test results taken from patent US20230407243A1, “GENETIC PLATFORM TO INVESTIGATE THE FUNCTIONS OF BACTERIAL DRUG EFFLUX PUMPS” (priority 2022, published 2023).
# Assays:
# Assay type in all cases: cell-based, Escherichia coli
# EKO-35 araC::emrAB = assay: MIC susceptibility profiling, efflux platform; conditions: for MIC: Escherichia coli, read-out: Minimum Inhibitory Concentration, EKO-35 araC::emrAB; for Fold change of MICs: EKO-35 araC::emrAB compared to EKO-35
# Outline: (§1)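 Growth inhibition was scored by OD600, with readings taken before incubation subtracted from those after. Cells were grown in MHB II at 37 °C for 18 h with aeration, against duplicate 2-fold compound series and DMSO-only wells. Inoculum: PBS suspension at OD600 ~1.0 diluted 1/2000.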
# EKO-35 araC::acrBD408A = assay: MIC susceptibility profiling, efflux platform; conditions: for MIC: Escherichia coli, read-out: Minimum Inhibitory Concentration, EKO-35 araC::acrBD408A; for Fold change of MICs: EKO-35 araC::acrBD408A compared to EKO-35
# Outline: as §1
# [1] = tested on: EKO-35 araC::mexCD (MexCD from P. aeruginosa); assay: MIC susceptibility profiling, efflux platform; conditions: for MIC: read-out: Minimum Inhibitory Concentration, EKO-35 araC::mexCD; for Fold change of MICs: EKO-35 araC::mexCD compared to EKO-35
# Outline: as §1
# EKO-35 araC::emrKY = assay: MIC susceptibility profiling, efflux platform; conditions: for MIC: Escherichia coli, read-out: Minimum Inhibitory Concentration, EKO-35 araC::emrKY; for Fold change of MICs: EKO-35 araC::emrKY compared to EKO-35
# Outline: as §1
# EKO-35 araC::acrD = assay: MIC susceptibility profiling, efflux platform; conditions: for MIC: Escherichia coli, read-out: Minimum Inhibitory Concentration, EKO-35 araC::acrD; for Fold change of MICs: EKO-35 araC::acrD compared to EKO-35
# Outline: as §1
# EKO-35 araC::mdtBC = assay: MIC susceptibility profiling, efflux platform; conditions: for MIC: Escherichia coli, read-out: Minimum Inhibitory Concentration, EKO-35 araC::mdtBC; for Fold change of MICs: EKO-35 araC::mdtBC compared to EKO-35
# Outline: as §1
# EKO-35 araC::macAB = assay: MIC susceptibility profiling, efflux platform; conditions: for MIC: Escherichia coli, read-out: Minimum Inhibitory Concentration, EKO-35 araC::macAB; for Fold change of MICs: EKO-35 araC::macAB compared to EKO-35
# Outline: as §1
# EKO-35 araC::acrEF = assay: MIC susceptibility profiling, efflux platform; conditions: for MIC: Escherichia coli, read-out: Minimum Inhibitory Concentration, EKO-35 araC::acrEF; for Fold change of MICs: EKO-35 araC::acrEF compared to EKO-35
# Outline: as §1
# EKO-35 araC::macAB Pore = assay: MIC susceptibility profiling, porinated efflux platform; conditions: for MIC: Escherichia coli, read-out: Minimum inhibitory concentration; for Fold changes of MICs: EKO-35 araC::macAB Pore compared to EKO-35-Pore
# Outline: (§2)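 Strains carry the fhuA ΔC/Δ4L pore integrated between glmS and pstS under a constitutive promoter, with pore activity checked by vancomycin susceptibility. Overnight LB cultures were adjusted in PBS pH 7.4 to OD600 ~1.0 and diluted 1/2000 into MHB II. 2-fold compound titrations were read by OD600 after 18 h at 37 °C.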
# EKO-35 araC::mdtEF Pore = assay: as above; conditions: for MIC: Escherichia coli, read-out: Minimum inhibitory concentration, EKO-35 araC::mdtEF Pore
# Outline: as §2
# EKO-35 araC::emrKY Pore = assay: as above; conditions: for MIC: Escherichia coli, read-out: Minimum inhibitory concentration; for Fold changes of MICs: EKO-35 araC::emrKY Pore compared to EKO-35-Pore
# Outline: as §2
# EKO-35 araC::mdtBC Pore = assay: as above; conditions: for MIC: Escherichia coli, read-out: Minimum inhibitory concentration; for Fold changes of MICs: EKO-35 araC::mdtBC Pore compared to EKO-35-Pore
# Outline: as §2
# EKO-35 araC::acrB Pore = assay: as above; conditions: for MIC: Escherichia coli, read-out: Minimum inhibitory concentration, EKO-35 araC::acrB Pore; for Fold changes of MICs: EKO-35 araC::acr-B Pore compared to EKO-35-Pore
# Outline: as §2
# [2] = tested on: EKO-35 araC::acrBD408A Pore; assay: as above; conditions: for MIC: Escherichia coli, read-out: Minimum inhibitory concentration; for Fold changes of MICs: EKO-35 araC::acrBD408A Pore compared to EKO-35-Pore
# Outline: as §2
# EKO-35 araC::acrEF Pore = assay: as above; conditions: for MIC: Escherichia coli, read-out: Minimum inhibitory concentration, EKO-35 araC::acrEF Pore; for Fold changes of MICs: EKO-35 araC::acrEF Pore compared to EKO-35-Pore
# Outline: as §2
# EKO-35 araC::mexCD Pore = assay: as above; conditions: for MIC: Escherichia coli, read-out: Minimum inhibitory concentration; for Fold changes of MICs: EKO-35 araC::mexCD Pore compared to EKO-35-Pore
# Outline: as §2
# EKO-35 araC::acrD Pore = assay: as above; conditions: for MIC: Escherichia coli, read-out: Minimum inhibitory concentration, EKO-35 araC::acrD Pore; for Fold changes of MICs: EKO-35 araC::acrD Pore compared to EKO-35-Pore
# Outline: as §2
# EKO-35 araC::emrAB Pore = assay: as above; conditions: for MIC: Escherichia coli, read-out: Minimum inhibitory concentration; for Fold changes of MICs: EKO-35 araC::emrAB Pore compared to EKO-35-Pore
# Outline: as §2
# [3] = Table 13B, non-porinated, technical duplicate
# [4] = Table 13A, non-porinated, technical duplicate
# [5] = EKO-35 araC::macAB Pore, technical duplicate
# [6] = Table 14A, porinated, technical duplicate
# [7] = EKO-35 araC::emrKY Pore, technical duplicate
# [8] = EKO-35 araC::mdtBC Pore, technical duplicate
# [9] = EKO-35 araC::acrBD408A Pore, technical duplicate
# [10] = EKO-35 araC::mexCD Pore, technical duplicate
# [11] = EKO-35 araC::emrAB Pore, technical duplicate
compound,measurement,setting,value
Cc1onc(-c2ccccc2)c1C(=O)N[C@@H]1C(=O)N2[C@@H]1SC(C)(C)[C@@H]2C(=O)O [oxacillin],MIC,EKO-35 araC::emrAB; [3],1.25 µg/mL
same,MIC,EKO-35 araC::acrBD408A; [3],1.25 µg/mL
same,MIC,[1]; [3],20 µg/mL
same,MIC,EKO-35 araC::emrKY; [3],0.625 µg/mL
same,efflux pump-mediated resistance vs EKO-35,EKO-35 araC::acrD; AcrD,confirmed
same,MIC,EKO-35 araC::acrD; [4],160 µg/mL
same,MIC,EKO-35 araC::mdtBC; [3],0.625 µg/mL
same,MIC,EKO-35 araC::macAB; [3],0.625 µg/mL
same,MIC,EKO-35 araC::acrEF; [4],160 µg/mL
same,MIC,EKO-35 araC::macAB Pore; [5],0.313 µg/mL
same,MIC,EKO-35 araC::mdtEF Pore; [6],1.25 µg/mL
same,MIC,EKO-35 araC::emrKY Pore; [7],0.313 µg/mL
same,MIC,EKO-35 araC::mdtBC Pore; [8],0.313 µg/mL
same,MIC,EKO-35 araC::acrB Pore; [6],20 µg/mL
same,MIC,[2]; [9],0.156 µg/mL
same,MIC,EKO-35 araC::acrEF Pore; [6],5 µg/mL
same,MIC,EKO-35 araC::mexCD Pore; [10],2.5 µg/mL
same,MIC,EKO-35 araC::acrD Pore; [6],20 µg/mL
same,MIC,EKO-35 araC::emrAB Pore; [11],0.313 µg/mL
[H]/N=C(/N)N[C@H]1[C@H](O)[C@@H](O)[C@H](O[C@@H]2O[C@@H](C)[C@](O)(C=O)[C@H]2O[C@@H]2O[C@@H](CO)[C@H](O)[C@@H](O)[C@@H]2NC)[C@@H](N/C(N)=N\[H])[C@@H]1O [Streptomycin],Fold change of MICs,EKO-35 araC::emrAB,1 fold
same,MIC,EKO-35 araC::emrAB; [3],3.12 µg/mL
same,Fold change of MICs,EKO-35 araC::acrBD408A,1 fold
same,MIC,EKO-35 araC::acrBD408A; [3],3.12 µg/mL
same,Fold change of MICs,[1],1 fold
same,MIC,[1]; [3],3.12 µg/mL
same,Fold change of MICs,EKO-35 araC::emrKY,1 fold
same,MIC,EKO-35 araC::emrKY; [3],3.12 µg/mL
same,Fold change of MICs,EKO-35 araC::acrD,2 fold
same,MIC,EKO-35 araC::acrD; [4],6.25 µg/mL
same,Fold change of MICs,EKO-35 araC::mdtBC,2 fold
same,MIC,EKO-35 araC::mdtBC; [3],6.25 µg/mL
same,Fold change of MICs,EKO-35 araC::macAB,1 fold
same,MIC,EKO-35 araC::macAB; [3],3.12 µg/mL
same,Fold change of MICs,EKO-35 araC::acrEF,1 fold
same,MIC,EKO-35 araC::acrEF; [4],3.12 µg/mL
same,Fold changes of MICs,EKO-35 araC::macAB Pore,1 fold
same,MIC,EKO-35 araC::macAB Pore; [5],3.12 µg/mL
same,Fold changes of MICs,EKO-35 araC::mdtEF Pore; EKO-35 araC::mdtEF Pore compared to EKO-35-Pore,1 fold
same,MIC,EKO-35 araC::mdtEF Pore; [6],3.12 µg/mL
same,Fold changes of MICs,EKO-35 araC::emrKY Pore,1 fold
same,MIC,EKO-35 araC::emrKY Pore; [7],3.12 µg/mL
same,Fold changes of MICs,EKO-35 araC::mdtBC Pore,1 fold
same,MIC,EKO-35 araC::mdtBC Pore; [8],3.12 µg/mL
same,Fold changes of MICs,EKO-35 araC::acrB Pore,2 fold
same,MIC,EKO-35 araC::acrB Pore; [6],6.25 µg/mL
same,Fold changes of MICs,[2],1 fold
same,MIC,[2]; [9],1.56 µg/mL
same,Fold changes of MICs,EKO-35 araC::acrEF Pore,1 fold
same,MIC,EKO-35 araC::acrEF Pore; [6],3.12 µg/mL
same,Fold changes of MICs,EKO-35 araC::mexCD Pore,1 fold
same,MIC,EKO-35 araC::mexCD Pore; [10],3.12 µg/mL
same,Fold changes of MICs,EKO-35 araC::acrD Pore,1 fold
same,MIC,EKO-35 araC::acrD Pore; [6],3.12 µg/mL
same,Fold changes of MICs,EKO-35 araC::emrAB Pore,1 fold
same,MIC,EKO-35 araC::emrAB Pore; [11],3.12 µg/mL
CC(C)c1ccc(C=C(C#N)c2nc3ccccc3[nH]2)cc1 [compound 12],Fold change of MICs,EKO-35 araC::emrAB,1 fold
same,"Minimum Inhibitory Concentration, EKO-35 araC::emrAB",EKO-35 araC::emrAB; [3],320 µg/mL
same,Fold change of MICs,EKO-35 araC::acrBD408A,1 fold
same,"Minimum Inhibitory Concentration, EKO-35 araC::acrBD408A",EKO-35 araC::acrBD408A; [3],320 µg/mL
same,Fold change of MICs,[1],1 fold
same,"Minimum Inhibitory Concentration, EKO-35 araC::mexCD",[1]; [3],320 µg/mL
same,Fold change of MICs,EKO-35 araC::emrKY,1 fold
same,"Minimum Inhibitory Concentration, EKO-35 araC::emrKY",EKO-35 araC::emrKY; [3],320 µg/mL
same,Fold change of MICs,EKO-35 araC::acrD,1 fold
same,"Minimum Inhibitory Concentration, EKO-35 araC::acrD",EKO-35 araC::acrD; [4],320 µg/mL
same,Fold change of MICs,EKO-35 araC::mdtBC,1 fold
same,"Minimum Inhibitory Concentration, EKO-35 araC::mdtBC",EKO-35 araC::mdtBC; [3],320 µg/mL
same,Fold change of MICs,EKO-35 araC::macAB,1 fold
same,"Minimum Inhibitory Concentration, EKO-35 araC::macAB",EKO-35 araC::macAB; [3],320 µg/mL
same,Fold change of MICs,EKO-35 araC::acrEF,1 fold
same,"Minimum Inhibitory Concentration, EKO-35 araC::acrEF",EKO-35 araC::acrEF; [4],320 µg/mL
same,Fold changes of MICs,EKO-35 araC::macAB Pore,2 fold
same,Minimum inhibitory concentration,EKO-35 araC::macAB Pore; [5],320 µg/mL
same,"Minimum inhibitory concentration, EKO-35 araC::mdtEF Pore",EKO-35 araC::mdtEF Pore; [6],320 µg/mL
same,Fold changes of MICs,EKO-35 araC::emrKY Pore,2 fold
same,Minimum inhibitory concentration,EKO-35 araC::emrKY Pore; [7],320 µg/mL
same,Fold changes of MICs,EKO-35 araC::mdtBC Pore,2 fold
same,Minimum inhibitory concentration,EKO-35 araC::mdtBC Pore; [8],320 µg/mL
same,Fold changes of MICs,EKO-35 araC::acrB Pore,2 fold
same,"Minimum inhibitory concentration, EKO-35 araC::acrB Pore",EKO-35 araC::acrB Pore; [6],320 µg/mL
same,Fold changes of MICs,[2],2 fold
same,Minimum inhibitory concentration,[2]; [9],320 µg/mL
same,Fold changes of MICs,EKO-35 araC::acrEF Pore,2 fold
same,"Minimum inhibitory concentration, EKO-35 araC::acrEF Pore",EKO-35 araC::acrEF Pore; [6],320 µg/mL
same,Fold changes of MICs,EKO-35 araC::mexCD Pore,2 fold
same,Minimum inhibitory concentration,EKO-35 araC::mexCD Pore; [10],320 µg/mL
same,Fold changes of MICs,EKO-35 araC::acrD Pore,1 fold
same,"Minimum inhibitory concentration, EKO-35 araC::acrD Pore",EKO-35 araC::acrD Pore; [6],160 µg/mL
same,Fold changes of MICs,EKO-35 araC::emrAB Pore,2 fold
same,Minimum inhibitory concentration,EKO-35 araC::emrAB Pore; [11],320 µg/mL
